Paper PMC5998028, “Synthesis, antimicrobial activity and conformational analysis of the class IIa bacteriocin pediocin PA-1 and analogs thereof” (Scientific Reports, 2018)

Test: Stability of the peptide in solution (storage, handling, assays)
Details: qualitative, relative to Met31-containing pediocin PA-1 3c

CC[C@H](C)[C@H](NC(=O)[C@H](CS)NC(=O)[C@@H](NC(=O)[C@@H](NC(=O)[C@H](C)NC(=O)[C@H](CCCCN)NC(=O)CNC(=O)[C@H](Cc1c[nH]c2ccccc12)NC(=O)[C@H](CC(=O)O)NC(=O)[C@@H](NC(=O)[C@H](CO)NC(=O)[C@H](CS)NC(=O)[C@H](CO)NC(=O)[C@H](Cc1c[nH]cn1)NC(=O)[C@H](CCCCN)NC(=O)CNC(=O)[C@H](CS)NC(=O)[C@@H](NC(=O)[C@@H](NC(=O)CNC(=O)[C@H](CC(N)=O)NC(=O)CNC(=O)[C@H](Cc1ccc(O)cc1)NC(=O)[C@H](Cc1ccc(O)cc1)NC(=O)[C@@H](N)CCCCN)C(C)C)[C@@H](C)O)C(C)C)[C@@H](C)O)[C@@H](C)O)C(=O)N[C@H](C(=O)N[C@@H](CC(N)=O)C(=O)N[C@@H](CC(N)=O)C(=O)NCC(=O)N[C@@H](C)C(=O)N[C@@H](CC(C)C)C(=O)N[C@@H](C)C(=O)N[C@@H](Cc1c[nH]c2ccccc12)C(=O)N[C@@H](C)C(=O)N[C@H](C(=O)NCC(=O)NCC(=O)N[C@@H](Cc1c[nH]cn1)C(=O)N[C@@H](CCC(N)=O)C(=O)NCC(=O)N[C@@H](CC(N)=O)C(=O)N[C@@H](Cc1c[nH]cn1)C(=O)N[C@@H](CCCCN)C(=O)N[C@@H](CS)C(=O)O)[C@@H](C)O)[C@@H](C)CC [compound 4]
molecular stability / stability in solution during storage, handling and assays: significantly greater
